These results are taken from patent US20240390350A1, “PHENYL CORE COMPOUNDS AS MGLU5 NEGATIVE ALLOSTERIC MODULATORS AND METHODS OF MAKING AND USING THE SAME” (Vanderbilt University, priority 2021, published 2024).

This assay addresses T1, human mGlu5 (Homo sapiens, UniProt P41594).
T1 construct: expressed in transfected cells; host or cells: HEK 293A
In words: mGlu5 negative allosteric modulator Ca2+ flux assay in HEK 293A cells (Table 1). It counts as cell-based. The conditions noted are these: HEK 293A cells stably expressing mGlu5; Ca2+ flux (Fluo-4); decrease of glutamate EC80 response; read-out: hmGlu5 NAM IC50. (In general: Calcium assays in cells follow changes in intracellular calcium, usually with a dye or a luminescent sensor.)

By IC50 is commonly meant the concentration needed to halve the response being measured.

SMILES strings stand for the structures. Where only a bound is given, the exact number is not on record here.

T1 sequence (P41594 21-1212): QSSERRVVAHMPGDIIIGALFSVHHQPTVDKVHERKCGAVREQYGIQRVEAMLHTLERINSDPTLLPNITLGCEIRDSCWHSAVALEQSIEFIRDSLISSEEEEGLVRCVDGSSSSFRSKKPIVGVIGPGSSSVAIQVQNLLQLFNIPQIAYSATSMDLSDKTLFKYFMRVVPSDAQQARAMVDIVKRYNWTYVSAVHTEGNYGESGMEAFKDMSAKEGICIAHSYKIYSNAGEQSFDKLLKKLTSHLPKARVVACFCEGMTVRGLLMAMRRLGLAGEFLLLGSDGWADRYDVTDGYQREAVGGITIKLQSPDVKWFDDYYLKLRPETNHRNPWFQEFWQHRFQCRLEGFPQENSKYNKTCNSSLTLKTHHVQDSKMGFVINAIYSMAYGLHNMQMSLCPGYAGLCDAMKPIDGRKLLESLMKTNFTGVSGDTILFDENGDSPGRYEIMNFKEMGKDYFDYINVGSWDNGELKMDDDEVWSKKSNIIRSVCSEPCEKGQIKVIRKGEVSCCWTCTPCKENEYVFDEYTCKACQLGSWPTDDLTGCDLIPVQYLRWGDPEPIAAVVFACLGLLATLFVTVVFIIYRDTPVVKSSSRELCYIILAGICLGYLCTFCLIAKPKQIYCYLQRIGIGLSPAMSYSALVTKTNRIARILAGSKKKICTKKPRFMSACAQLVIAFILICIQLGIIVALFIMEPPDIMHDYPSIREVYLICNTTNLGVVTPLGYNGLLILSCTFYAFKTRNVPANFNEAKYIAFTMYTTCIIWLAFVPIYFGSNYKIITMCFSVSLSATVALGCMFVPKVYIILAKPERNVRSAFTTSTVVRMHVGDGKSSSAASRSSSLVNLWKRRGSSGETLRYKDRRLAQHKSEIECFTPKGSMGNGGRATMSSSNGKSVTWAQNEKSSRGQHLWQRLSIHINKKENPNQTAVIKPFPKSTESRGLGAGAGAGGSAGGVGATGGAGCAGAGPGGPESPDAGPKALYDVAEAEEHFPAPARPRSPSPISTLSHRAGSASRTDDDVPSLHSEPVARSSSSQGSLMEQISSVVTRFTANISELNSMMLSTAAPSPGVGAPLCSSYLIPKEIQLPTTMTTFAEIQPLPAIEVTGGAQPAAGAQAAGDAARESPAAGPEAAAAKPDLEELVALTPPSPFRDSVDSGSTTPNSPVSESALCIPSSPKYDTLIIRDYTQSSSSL

Consider `Cn1cncc1-c1cc(F)cc(C(=O)Nc2ccc(F)cn2)c1` [Compound 27, 3-fluoro-N-(5-fluoropyridin-2-yl)-5-(1-methyl-1H-imidazol-5-yl)benzamide], for which the concentration for half-maximal inhibition (IC50) was > 10000 nM. Consider `Cc1ccncc1-c1cc(C(=O)Nc2ccc(Cl)cn2)c(F)cc1F` [Compound 39, N-(5-chloropyridin-2-yl)-2,4-difluoro-5-(4-methylpyridin-3-yl)benzamide], for which the concentration for half-maximal inhibition (IC50) was determined as 974 nM. Take `Cc1csc(NC(=O)c2cc(C#N)cc(-c3cnccc3C)c2)n1` [Compound 22, 3-cyano-5-(4-methylpyridin-3-yl)-N-(4-methylthiazol-2-yl)benzamide]: the 50% inhibitory concentration (IC50) stood at 198 nM. Under `Cc1cc(C(=O)Nc2ccccn2)cc(-c2cnccc2C)c1` [Compound 5, 3-Methyl-5-(4-methylpyridin-3-yl)-N-(pyridin-2-yl)benzamide] stands 95 nM; under `Cc1ncc(-c2cc(F)c(F)c(C(=O)Nc3ccc(F)cn3)c2)s1` [Compound 35, 2,3-difluoro-N-(5-fluoropyridin-2-yl)-5-(2-methylthiazol-5-yl)benzamide], 4170 nM.

In the case of `Cc1csc(NC(=O)c2cc(F)c(F)c(-c3cnccc3C)c2)n1` [Compound 51, 3,4-difluoro-5-(4-methylpyridin-3-yl)-N-(4-methylthiazol-2-yl)benzamide], the half-maximal inhibitory concentration (IC50) was found to be 437 nM. Under `Cc1ccncc1-c1cc(C#N)cc(C(=O)Nc2ccccn2)c1` [Compound 23, 3-cyano-5-(4-methylpyridin-3-yl)-N-(pyridin-2-yl)benzamide] stands 1210 nM; under `Cc1ccncc1-c1cc(Cl)cc(C(=O)Nc2ccccn2)c1` [Compound 15, 3-chloro-5-(4-methylpyridin-3-yl)-N-(pyridin-2-yl)benzamide], 328 nM. Then `Cc1ccncc1-c1cc(C(=O)Nc2cccc(Cl)n2)cc(F)c1F` [Compound 50, N-(6-chloropyridin-2-yl)-3,4-difluoro-5-(4-methylpyridin-3-yl)benzamide], with 79 nM; and `Cc1cccc(NC(=O)c2cc(-c3cnccc3C)cc(C(F)(F)F)c2)n1` [Compound 20, N-(6-methylpyridin-2-yl)-3-(4-methylpyridin-3-yl)-5-(trifluoromethyl)benzamide], with 1160 nM; and `Cc1ccncc1-c1cc(C(=O)Nc2ccccn2)cc(F)c1F` [Compound 49, 3,4-difluoro-5-(4-methylpyridin-3-yl)-N-(pyridin-2-yl)benzamide], with 412 nM. Consider `Cc1csc(NC(=O)c2cc(-c3cnccc3C)ccc2F)n1` [Compound 1, 2-fluoro-5-(4-methylpyridin-3-yl)-N-(4-methylthiazol-2-yl)benzamide], for which the IC50 is 734 nM. On to `Cc1csc(NC(=O)c2cc(-c3cnccc3C)cc(C(F)(F)F)c2)n1` [Compound 18, 3-(4-methylpyridin-3-yl)-N-(4-methylthiazol-2-yl)-5-(trifluoromethyl)benzamide], for which the IC50 is > 10000 nM. In the case of `Cc1cccc(NC(=O)c2cc(C#N)cc(-c3cnccc3C)c2)n1` [Compound 24, 3-cyano-N-(6-methylpyridin-2-yl)-5-(4-methylpyridin-3-yl)benzamide], the IC50 stood at 273 nM. Take `Cc1csc(NC(=O)c2cc(-c3cnccc3C)cc(F)c2F)n1` [Compound 2, 2,3-difluoro-5-(4-methylpyridin-3-yl)-N-(4-methylthiazol-2-yl)benzamide]: the concentration for half-maximal inhibition (IC50) is 136 nM.

In the case of `Cc1nn(C)cc1-c1ccc(F)c(C(=O)Nc2ccc(F)cn2)c1` [Compound 26, 5-(1,3-dimethyl-1H-pyrazol-4-yl)-2-fluoro-N-(5-fluoropyridin-2-yl)benzamide], the 50% inhibitory concentration (IC50) is > 10000 nM. Under `Cc1ccncc1-c1cc(C(=O)Nc2ccc(F)cn2)c(F)cc1F` [Compound 38, 2,4-difluoro-N-(5-fluoropyridin-2-yl)-5-(4-methylpyridin-3-yl)benzamide] stands 6420 nM; under `Cc1csc(NC(=O)c2cc(-c3cncc(F)c3)cc(F)c2F)n1` [Compound 40, 2,3-difluoro-5-(5-fluoropyridin-3-yl)-N-(4-methylthiazol-2-yl)benzamide], 93 nM. Then `Cc1csc(NC(=O)c2cc(F)cc(-c3cnccc3C)c2)n1` [Compound 3, 3-fluoro-5-(4-methylpyridin-3-yl)-N-(4-methylthiazol-2-yl)benzamide], with 540 nM; and `Cc1ccncc1-c1cc(F)c(F)c(C(=O)Nc2ccccn2)c1` [Compound 8, 2,3-difluoro-5-(4-methylpyridin-3-yl)-N-(pyridin-2-yl)benzamide], with > 10000 nM; and `Cc1cccc(NC(=O)c2cc(-c3cnccc3C)cc(F)c2F)n1` [Compound 10, 2,3-difluoro-N-(6-methylpyridin-2-yl)-5-(4-methylpyridin-3-yl)benzamide], with 322 nM. Under `Cc1ccncc1-c1ccc(F)c(C(=O)Nc2ccccn2)c1` [Compound 11, 2-fluoro-5-(4-methylpyridin-3-yl)-N-(pyridin-2-yl)benzamide] stands 1880 nM; under `Cc1nn(C)cc1-c1cc(F)c(F)c(C(=O)Nc2ccc(F)cn2)c1` [Compound 33, 5-(1,3-dimethyl-1H-pyrazol-4-yl)-2,3-difluoro-N-(5-fluoropyridin-2-yl)benzamide], 3460 nM; under `Cc1ccncc1-c1cc(F)c(F)c(C(=O)Nc2ccc(F)cn2)c1` [Compound 9, 2,3-difluoro-N-(5-fluoropyridin-2-yl)-5-(4-methylpyridin-3-yl)benzamide], 1030 nM. As to `O=C(Nc1cccc(Cl)n1)c1cc(-c2cncc(F)c2)cc(F)c1F` [Compound 42, N-(6-chloropyridin-2-yl)-2,3-difluoro-5-(5-fluoropyridin-3-yl)benzamide], the IC50 is 193 nM. Under `Cn1nccc1-c1cc(F)c(F)c(C(=O)Nc2ccc(F)cn2)c1` [Compound 32, 2,3-difluoro-N-(5-fluoropyridin-2-yl)-5-(1-methyl-1H-pyrazol-5-yl)benzamide] stands 4890 nM. `Cc1nn(C)c(C)c1-c1cc(F)cc(C(=O)Nc2ccc(F)cn2)c1` [Compound 28, 3-fluoro-N-(5-fluoropyridin-2-yl)-5-(1,3,5-trimethyl-1H-pyrazol-4-yl)benzamide]: the IC50 is > 10000 nM. On to `Cc1cccc(NC(=O)c2cc(Cl)cc(-c3cnccc3C)c2)n1` [Compound 16, 3-chloro-N-(6-methylpyridin-2-yl)-5-(4-methylpyridin-3-yl)benzamide], for which the IC50 turned out to be 104 nM.

For `Cc1ccncc1-c1cc(Cl)cc(C(=O)Nc2ccc(F)cn2)c1` [Compound 17, 3-chloro-N-(5-fluoropyridin-2-yl)-5-(4-methylpyridin-3-yl)benzamide], the IC50 was determined as 1860 nM.

As to `Cc1cccc(NC(=O)c2cc(F)c(F)c(-c3cncc(F)c3)c2)n1` [Compound 46, 3,4-difluoro-5-(5-fluoropyridin-3-yl)-N-(6-methylpyridin-2-yl)benzamide], the IC50 is 94 nM. Then `Cc1cccc(NC(=O)c2cc(F)c(F)c(-c3cnccc3C)c2)n1` [Compound 30, 3,4-difluoro-N-(6-methylpyridin-2-yl)-5-(4-methylpyridin-3-yl)benzamide], with 101 nM; and `Cc1ccncc1-c1ccc(F)c(C(=O)Nc2ccc(F)cn2)c1` [Compound 12, 2-fluoro-N-(5-fluoropyridin-2-yl)-5-(4-methylpyridin-3-yl)benzamide], with 1060 nM.
